{"source": "patent US20240335462A1", "about": "“SULFUR/PHOSPHORUS-CONTAINING ARYL COMPOUND AND APPLICATION THEREOF” (MEDSHINE DISCOVERY INC., priority 2021, published 2024)", "format_in_all_cases": "cell-based", "key": {"[1]": {"test_system": "TYK2 signaling pathway (IFN-α/pSTAT5)", "assay": "IFN-α-induced STAT phosphorylation in human whole blood", "experimental": "(§1) The purpose of this experiment was to detect the inhibitory effect of the compound on the JAK-STAT signaling pathway activated by cytokines in human whole blood or platelet-rich plasma. Fresh human whole blood/platelets were placed in a 96-well plate. The test compound was added and incubated for 1 hour, followed by stimulation with various cytokines. The corresponding STAT phosphorylation levels in different cell populations were analyzed using flow cytometer by means of surface antibody staining and intracellular phosphorylated antibody staining. The experiments using the cytokines IFN-α, […] as stimulants were conducted in human whole blood, whereas the experiment using the cytokine TPO as a stimulant was conducted in platelet-rich plasma.\n(§2) • a) Fresh blood from volunteers was collected using EDTA anticoagulant tubes. • b) 90 μL per well of whole blood was rapidly seeded into a 96-well plate and incubated in a cell culture incubator for 15 minutes. […] The plate was centrifuged at 500×g for 8 minutes, and the supernatant was discarded. • g) The cell pellet was washed once with pre-cooled PBS. • h) After discarding the supernatant, anti-human CD3 antibody was added thereto, followed by incubation at room temperature for 40 minutes. • i) The plate was centrifuged at 500×g for 8 minutes, then the supernatant was discarded, and the cells were washed twice with 200 μL of pre-cooled PBS. • j) The cells were resuspended in 200 μL of pre-cooled Perm Buffer III per well and permeabilized on ice for 60 minutes. • k) The plate was centrifuged at 600×g for 8 minutes, then the supernatant was discarded, and the cells were washed twice with pre-cooled PBS. • l) Intracellular staining with anti-pSTAT5 antibody was carried out, followed by incubation at room temperature for 60 minutes. • m) The cells were centrifuged at 600×g for 8 minutes, washed twice with PBS, resuspended in 200 μL of PBS, and detected using the CytoFlex S flow cytometer. • n) Data analysis was conducted using FlowJo and GraphPad Prism 8 software.\n(§3) Data were analyzed using FlowJo software. […]"}, "[2]": {"test_system": "JAK1/2 signaling pathway (IL-6/pSTAT3)", "assay": "IL-6-induced STAT phosphorylation in human whole blood", "experimental": "as §1, §2, §3"}, "[3]": {"test_system": "JAK2/2 signaling pathway (TPO/pSTAT5)", "assay": "TPO-induced STAT phosphorylation in human platelet-rich plasma", "experimental": "as §1\n• a) Fresh blood from volunteers was collected using EDTA anticoagulant tubes and centrifuged at 200 g for 20 minutes to prepare platelet-rich plasma (PRP). • b) 90 μL per well of PRP was rapidly seeded into a 96-well plate and incubated in a cell culture incubator for 15 minutes. […] The plate was then incubated in the incubator for 15 minutes. • d) After incubation, the plate was centrifuged at 1000×g for 10 minutes, then the supernatant was discarded, and the cells were washed twice with 200 μL of PBS. • e) PE-anti-human CD61 antibody was added to each well, followed by incubation at room temperature for 40 minutes. • f) After incubation, the plate was centrifuged at 1000×g for 10 minutes, then the supernatant was discarded, and the cells were washed twice with 200 μL of PBS. • g) The cells were resuspended in 200 μL of pre-cooled Perm Buffer III and permeabilized on ice for 60 minutes. • h) The plate was centrifuged at 1000×g for 10 minutes, then the supernatant was discarded, and the cells were washed twice with pre-cooled PBS. • i) Intracellular anti-pSTAT5 phosphorylated antibody was added thereto, followed by incubation at room temperature for 60 minutes. • j) The cells were washed twice with PBS and resuspended in 200 μL of PBS, and then detected using the CytoFlex S flow cytometer. […]"}}, "data": [{"smiles": "CNC(=O)c1cnc(NC(=O)C2CC2)cc1Nc1cccc(-c2ncc(S(=O)(=O)C(C)C)cn2)c1OC", "note": "[WX-019]", "values": [{"measurement": "IC50", "setting": "[1]", "value": 29.7, "unit": "nM"}, {"measurement": "IC50", "setting": "[2]", "value": 33.9, "unit": "µM"}, {"measurement": "IC50", "setting": "[3]", "value": "> 100", "unit": "µM"}]}, {"smiles": "CNC(=O)c1cnc(NC(=O)C2CC2)cc1Nc1cccc(-c2ccc(S(=O)(=O)C(C)C)cn2)c1OC", "note": "[WX-020]", "values": [{"measurement": "IC50", "setting": "[1]", "value": 40.3, "unit": "nM"}, {"measurement": "IC50", "setting": "[2]", "value": "> 100", "unit": "µM"}, {"measurement": "IC50", "setting": "[3]", "value": "> 100", "unit": "µM"}]}, {"smiles": "CNC(=O)c1nnc(NC(=O)C2CC2)cc1Nc1cccc(-c2ncc(S(=N)(=O)C(C)C)cn2)c1OC", "note": "(single isomer, unassigned) [WX-011A]", "values": [{"measurement": "IC50", "setting": "[1]", "value": 23.1, "unit": "nM"}, {"measurement": "IC50", "setting": "[2]", "value": 10.8, "unit": "µM"}, {"measurement": "IC50", "setting": "[3]", "value": "> 100", "unit": "µM"}]}]}
